Measurements reported in PubChem BioAssay (NCI).
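Interpolation was linear, between the two tested concentrations surrounding the appropriate level; five concentrations were tested over 48 hours in 96-well plates. Definition used: TGI = concentration required for complete inhibition of growth.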

How the values were obtained:
Test in all cases: growth of human tumour cells (NCI), 48 h
786-0 renal = system: 786-0 renal
A549 NSCLC = system: A549 NSCLC
ACHN renal = system: ACHN renal
CAKI-1 renal = system: CAKI-1 renal
COLO 205 colon = system: COLO 205 colon
DLD-1 colon = system: DLD-1 colon
DMS 273 small cell lung = system: DMS 273 small cell lung
HCC-2998 colon = system: HCC-2998 colon
HCT-116 colon = system: HCT-116 colon
HCT-15 colon = system: HCT-15 colon
HL-60(TB) leukemia = system: HL-60(TB) leukemia
HOP-18 NSCLC = system: HOP-18 NSCLC
HOP-62 NSCLC = system: HOP-62 NSCLC
HOP-92 NSCLC = system: HOP-92 NSCLC
HT29 colon = system: HT29 colon
IGROV1 ovarian = system: IGROV1 ovarian
K-562 leukemia = system: K-562 leukemia
KM12 colon = system: KM12 colon
KM20L2 colon = system: KM20L2 colon
LOX IMVI melanoma = system: LOX IMVI melanoma
LXFL 529 NSCLC = system: LXFL 529 NSCLC
M14 melanoma = system: M14 melanoma
MALME-3M melanoma = system: MALME-3M melanoma
MOLT-4 leukemia = system: MOLT-4 leukemia
NCI-H226 lung = system: NCI-H226 lung
NCI-H23 lung = system: NCI-H23 lung
NCI-H460 lung = system: NCI-H460 lung
NCI-H522 lung = system: NCI-H522 lung
OVCAR-3 ovarian = system: OVCAR-3 ovarian
OVCAR-4 ovarian = system: OVCAR-4 ovarian
OVCAR-5 ovarian = system: OVCAR-5 ovarian
OVCAR-8 ovarian = system: OVCAR-8 ovarian
RPMI-8226 leukemia = system: RPMI-8226 leukemia
RXF-631 renal = system: RXF-631 renal
SF-268 CNS = system: SF-268 CNS
SF-295 CNS = system: SF-295 CNS
SF-539 CNS = system: SF-539 CNS
SK-MEL-2 melanoma = system: SK-MEL-2 melanoma
SK-MEL-28 melanoma = system: SK-MEL-28 melanoma
SK-OV-3 ovarian = system: SK-OV-3 ovarian
SN12C renal = system: SN12C renal
SNB-19 CNS = system: SNB-19 CNS
SNB-75 CNS = system: SNB-75 CNS
SNB-78 CNS = system: SNB-78 CNS
SR leukemia = system: SR leukemia
SW-620 colon = system: SW-620 colon
TK-10 renal = system: TK-10 renal
UACC-257 melanoma = system: UACC-257 melanoma
UACC-62 melanoma = system: UACC-62 melanoma
UO-31 renal = system: UO-31 renal
XF 498 CNS = system: XF 498 CNS
A498 renal = system: A498 renal
CCRF-CEM leukemia = system: CCRF-CEM leukemia
EKVX NSCLC = system: EKVX NSCLC
M19-MEL melanoma = system: M19-MEL melanoma
SK-MEL-5 melanoma = system: SK-MEL-5 melanoma
U251 CNS = system: U251 CNS

Measured: TGI

N#CC(C(=O)CCCC(=O)Nc1ccc(Cl)cc1Cl)c1ccc(Cl)cc1 (stereo unspecified)
not listed: A498 renal | CCRF-CEM leukemia | EKVX NSCLC | M19-MEL melanoma | SK-MEL-5 melanoma | U251 CNS
> 100 µM: all other assays above

CC1=CC(=O)NP(=O)(C23CC4CC(CC(C4)C2)C3)N1 (stereo unspecified)
not listed: A549 NSCLC | HCC-2998 colon
> 100 µM: all other assays above
